“And” between values parts separate entries of the source, which are not always exact repeats. Equal values may be shown once. Numbers after ± are expanded uncertainties.
Conditions: Liquid, Closed cell (Static) method

Row | Compound | vapor or sublimation pressure (332.06 K) [kPa] | vapor or sublimation pressure (332.08 K) | other results
1 | C/C=C/C [(E)-2-butene] | 605.74 ± 2.1 | 606.44 ± 2.1 kPa and 606.14 ± 2.1 kPa | vapor or sublimation pressure (332.04 K): 605.54 ± 2.1 kPa; vapor or sublimation pressure (332.07 K): 606.94 ± 2.1 kPa
2 | CCC(C)O (centres undefined) [butan-2-ol] | – | 17.27 ± 0.4 kPa | –
3 | CC(C)O [propan-2-ol] | – | – | vapor or sublimation pressure (332.03 K): 36.47 ± 0.42 kPa
4 | CC(C)(C)O [2-methylpropan-2-ol] | 36.97 ± 0.42 | – | –

Continued, in another order:

Row | vapor or sublimation pressure (332.06 K) [kPa] | vapor or sublimation pressure (332.08 K) | Compound | other results
5 | 44.67 ± 0.43 | – | CCO [ethanol] | –
6 | – | 80.97 ± 0.48 kPa | CO [methanol] | –
